Data reported in patent US20240246918A1, “COMPOUNDS AND COMPOSITIONS AS EIF4E INHIBITORS AND THE USES THEREOF” (Ribometrix, Inc., priority 2022, published 2024).
Read-outs that look alike come from different tables or passages of the source.

Key:
[1] = system: cap-dependent translation in Flp-In-293 reporter cells; assay: Cellular cap-dependent translation inhibition assay (dual luciferase assay, DLA; Fluc/Rluc ratio, 24 hours); assay type: cell-based; conditions: dual luciferase assay, Flp-In-293 reporter cells, 24 hours, Fluc/Rluc ratio, read-out: DLA 205 IC50
[2] = system: COLO 205 colorectal tumor cells; assay: Tumor cell viability inhibition assay (CellTiter-Glo 2.0, 72 hours); assay type: cell-based; conditions: COLO 205 cell viability
Procedure, shortened: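 IC50 derived by 4-parameter fitting after normalizing luminescence to DMSO and max-inhibition wells. Compounds tested as 11 concentrations in 4-fold steps on COLO 205 cells seeded at 1500 per well in RPMI-1640/10% FBS; ATP content measured with CellTiter-Glo 2.0 after 72 h.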

human eIF4E protein = biological target: T1, human eIF4E protein (Homo sapiens, UniProt P06730); assay: Biochemical competitive binding assay (TR-FRET competition, EDA-m7GDP-ATTO-647N probe); conditions: read-out: hEIF4E TR-FRET IC50
T1 construct: purchased Novus NBP-45314
T1 sequence (P06730 whole entry): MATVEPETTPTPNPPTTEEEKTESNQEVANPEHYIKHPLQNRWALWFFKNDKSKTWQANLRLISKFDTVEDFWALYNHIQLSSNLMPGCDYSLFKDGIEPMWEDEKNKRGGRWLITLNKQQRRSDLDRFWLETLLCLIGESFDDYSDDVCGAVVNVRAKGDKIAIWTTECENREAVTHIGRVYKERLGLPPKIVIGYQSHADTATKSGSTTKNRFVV
Procedure, shortened: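 IC50 values come from 4-parameter fits of the normalized 665/620 nm TR-FRET ratio. Compound was first incubated 15 min with 4 nM recombinant His-eIF4E bound to 2.5 nM Eu-anti-His antibody, then 15 min with 5 nM m7GDP-ATTO-647N tracer, in pH 7.5 HEPES buffer with 100 mM KCl, Tween-20 and BSA.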

Row | SMILES | IC50 ([2]; Homo sapiens, COLO 205, 72 h) [µM] | IC50 (human eIF4E protein) [µM] | IC50 [2] [µM] | IC50 ([1]; Homo sapiens, Flp-In-293, 24 h) [µM] | IC50 [1] [µM]
1 | Cc1sc2c(-c3cc(Cl)ccc3OCCn3c(C)nc4c(c3=O)CC(N(C)CC3CC(F)(F)C3)CC4)cn(C)c(=O)c2c1C(=O)O (single isomer, unassigned) [Compound 253] | – | 0.1 to 0.5 | > 20 | – | > 5
2 | Cc1cc(-c2cc(Cl)ccc2OCCn2c(C)nc3c(c2=O)CC(N(C)C2(c4ccc(F)cc4)CC2)CC3)c2scc(C(=O)NS(C)(=O)=O)c2n1 (stereo not drawn) [Compound 274] | 5 to 20 | 0.1 to 0.5 | – | 1 to 5 | –
3 | Cc1nc2c(c(=O)n1CC#Cc1ccc(Cl)cc1-c1ccnc3c(C(=O)O)csc13)CC(N(C)C)CC2 (single isomer, unassigned) [Compound 297] | – | 0.5 to 5 | > 20 | – | > 5
4 | Cc1cc(-c2cc(Cl)ccc2OCCn2c(C)nc3c(c2=O)CC(N(CC(F)(F)F)C2CC2)CC3)c2scc(C(=O)NS(C)(=O)=O)c2n1 (single isomer, unassigned) [Compound 308] | 5 to 20 | 0.1 to 0.5 | – | 1 to 5 | –
5 | COC1CCN(C2CCc3nc(C)n(CCOc4ccc(Cl)cc4-c4cc(C)nc5c(C(=O)O)csc45)c(=O)c3C2)CC1 (stereo not drawn) [Compound 12] | < 5 | < 0.1 | – | < 1 | –
6 | Cc1cc(-c2cc(Cl)ccc2OCCn2c(C)nc3c(c2=O)CC(N(C)C2(C(F)(F)F)CC2)CC3)c2scc(C(=O)O)c2n1 (stereo not drawn) [Compound 265] | > 20 | 0.1 to 0.5 | – | 1 to 5 | –
7 | Cc1cc(-c2cc(Cl)ccc2OCCn2c(C)nc3c(c2=O)CC2(CC3)CCN(C3CC3)CC2)c2scc(C(=O)O)c2n1 [Compound 267, 7-(5-chloro-2-(2-(1-cyclopropyl-2′-methyl-4′-oxo-7′,8′-dihydro-4′H-spiro[piperidine-4,6′-quinazolin]-3′(5′H)-yl)ethoxy)phenyl)-5-methylthieno[3,2-b]pyridine-3-carboxylic acid] | 5 to 20 | < 0.1 | – | < 1 | –
8 | Cc1cc(-c2cc(Cl)ccc2OCCn2c(C)nc3c(c2=O)CC(N2CC(F)(F)C2)CC3)c2scc(C(=O)O)c2n1 (stereo not drawn) [Compound 49] | 5 to 20 | 0.1 to 0.5 | – | 1 to 5 | –
9 | Cc1cc(-c2cc(Cl)ccc2OCCn2c(C)nc3c(c2=O)CC(N(C)C24CC(C)(C2)C4(F)F)CC3)c2scc(C(=O)NS(C)(=O)=O)c2n1 (stereo not drawn) [Compound 288] | 5 to 20 | < 0.1 | – | 1 to 5 | –
10 | Cc1cc(-c2cc(Cl)ccc2OCCn2c(C)nc3c(c2=O)CC(N2CC4COCC4C2)CC3)c2scc(C(=O)O)c2n1 (single isomer, unassigned) [Compound 67] | < 5 | < 0.1 | – | < 1 | –
11 | Cc1cc(-c2cc(Cl)ccc2OCCn2c(C)nc3c(c2=O)CC(N2CCN(C)C(=O)C2)CC3)c2scc(C(=O)NS(C)(=O)=O)c2n1 (stereo not drawn) [Compound 88] | > 20 | < 0.1 | – | > 5 | –
12 | Cc1cc(-c2cc(Cl)ccc2OCCn2c(C)nc3c(c2=O)CC(N(C)C2CCOCC2)CC3)c2scc(C(=O)O)c2n1 (stereo not drawn) [Compound 77] | 5 to 20 | < 0.1 | – | < 1 | –
13 | Cc1cc(-c2cc(Cl)ccc2OCCn2c(C)nc3c(c2=O)CC(N(CC(F)(F)F)C2CC2)CC3)c2scc(C(=O)O)c2n1 (single isomer, unassigned) [Compound 319] | 5 to 20 | 0.1 to 0.5 | – | 1 to 5 | –
14 | Cc1cc(-c2cc(Cl)ccc2OCCn2c(C)nc3c(c2=O)CC(N2CC(C(F)(F)F)C2)CC3)c2scc(C(=O)NS(C)(=O)=O)c2n1 (single isomer, unassigned) [Compound 322] | – | < 0.1 | < 5 | – | < 1
15 | Cc1nc2c(c(=O)n1CC#Cc1ccc(Cl)cc1-c1ccnc3c(C(=O)NS(C)(=O)=O)csc13)C[C@@H](N1CC[C@@H](F)C1)CC2 (single isomer, unassigned) [Compound 349] | < 5 | < 0.1 | – | < 1 | –
16 | Cc1nc2c(c(=O)n1CC#Cc1ccc(Cl)cc1-c1ccnc3c(C(=O)O)csc13)CC(N(C)Cc1ccncc1)CC2 (stereo not drawn) [Compound 351] | < 5 | < 0.1 | – | < 1 | –
17 | Cc1cc(-c2cc(Cl)ccc2OCCn2c(C)nc3c(c2=O)CC(N(CC(F)(F)F)C2CC2)CC3)c2scc(C(=O)O)c2n1 (single isomer, unassigned) [Compound 320] | – | 0.1 to 0.5 | 5 to 20 | – | 1 to 5
18 | Cc1nc2c(c(=O)n1CC#Cc1ccc(Cl)cc1-c1ccnc3c(C(=O)O)csc13)CC(N(C)C)CC2 (single isomer, unassigned) [Compound 296] | > 20 | 0.5 to 5 | – | > 5 | –
19 | Cc1cc(-c2cc(Cl)ccc2OCCn2c(C)nc3c(c2=O)CC(N(C)C2CCC(F)(F)C2)CC3)c2scc(C(=O)O)c2n1 (single isomer, unassigned) [Compound 337] | < 5 | < 0.1 | – | < 1 | –
20 | Cc1cc(-c2cc(Cl)ccc2OCCn2c(C)nc3c(c2=O)CC(N(C)C2(c4ccc(F)cc4)CC2)CC3)c2scc(C(=O)O)c2n1 (single isomer, unassigned) [Compound 280] | 5 to 20 | 0.1 to 0.5 | – | 1 to 5 | –
21 | Cc1cc(-c2cc(Cl)ccc2OCCn2c(C)nc3c(c2=O)CC(N2CC4COCC4C2)CC3)c2scc(C(=O)NS(C)(=O)=O)c2n1 (single isomer, unassigned) [Compound 359] | < 5 | < 0.1 | – | < 1 | –
22 | Cc1cc(-c2cc(Cl)ccc2OCCn2c(C)nc3c(c2=O)CC(N(C2CC2)C2CC2)CC3)c2scc(C(=O)O)c2n1 (stereo not drawn) [Compound 352] | < 5 | < 0.1 | – | < 1 | –
23 | Cc1cc(-c2cc(Cl)ccc2OCCn2c(C)nc3c(c2=O)CC(N(C)CC2CC(F)(F)C2)CC3)c2scc(C(=O)O)c2n1 (single isomer, unassigned) [Compound 259] | – | < 0.1 | < 5 | < 1 | –
24 | Cc1cc(-c2cc(Cl)ccc2OCCn2c(C)nc3c(c2=O)CC(N(C)CC2(C)COC2)CC3)c2scc(C(=O)O)c2n1 (single isomer, unassigned) [Compound 345] | – | < 0.1 | 5 to 20 | – | < 1

The next lines start with results.

Row | IC50 ([2]; Homo sapiens, COLO 205, 72 h) [µM] | IC50 (human eIF4E protein) [µM] | IC50 [2] [µM] | SMILES | IC50 ([1]; Homo sapiens, Flp-In-293, 24 h) [µM] | IC50 [1] [µM]
25 | 5 to 20 | < 0.1 | – | Cc1cc(-c2cc(Cl)ccc2OCCn2c(C)nc3c(c2=O)CC(N(C)C2CC2)CC3)c2scc(C(=O)NS(=O)(=O)c3ccncc3)c2n1 (single isomer, unassigned) [Compound 284] | 1 to 5 | –
26 | < 5 | < 0.1 | – | Cc1cc(-c2cc(Cl)ccc2OCCn2c(C)nc3c(c2=O)CC(N(C)Cc2ccncc2)CC3)c2scc(C(=O)O)c2n1 (stereo not drawn) [Compound 16] | < 1 | –
27 | – | < 0.1 | < 5 | Cc1cc(-c2cc(Cl)ccc2OCCn2c(C)nc3c(c2=O)CC(N(C)C2CC(F)(F)C2)CC3)c2scc(C(=O)NS(C)(=O)=O)c2n1 (single isomer, unassigned) [Compound 94] | – | < 1
28 | < 5 | < 0.1 | – | Cc1cc(-c2cc(Cl)ccc2OCCn2c(C)nc3c(c2=O)CC(N(CC(F)(F)F)C2CCC2)CC3)c2scc(C(=O)NS(C)(=O)=O)c2n1 (stereo not drawn) [Compound 87] | < 1 | –
29 | < 5 | < 0.1 | – | Cc1cc(-c2cc(Cl)ccc2OCCn2c(C)nc3c(c2=O)C[C@@H](N2CCC[C@H](F)C2)CC3)c2scc(C(=O)O)c2n1 (single isomer, unassigned) [Compound 282] | < 1 | –
30 | < 5 | < 0.1 | – | Cc1cc(-c2cc(Cl)ccc2OCCn2c(C)nc3c(c2=O)CC(N(C)CC(F)(F)F)CC3)c2scc(C(=O)NS(C)(=O)=O)c2n1 (stereo not drawn) [Compound 61] | < 1 | –
31 | < 5 | < 0.1 | – | Cc1cc(-c2cc(Cl)ccc2OCCn2c(C)nc3c(c2=O)C[C@@H](N2CCC[C@@H](F)C2)CC3)c2scc(C(=O)O)c2n1 (single isomer, unassigned) [Compound 324] | < 1 | –
32 | 5 to 20 | < 0.1 | – | Cc1cc(-c2cc(Cl)ccc2OCCn2c(C)nc3c(c2=O)CC(N2CC(F)(F)C2)CC3)c2scc(C(=O)NS(C)(=O)=O)c2n1 (stereo not drawn) [Compound 56] | 1 to 5 | –
33 | < 5 | < 0.1 | – | Cc1cc(-c2cc(Cl)ccc2OCCn2c(C)nc3c(c2=O)CC(N2CC(F)C2)CC3)c2scc(C(=O)O)c2n1 (stereo not drawn) [Compound 356] | < 1 | –
34 | 5 to 20 | < 0.1 | – | Cc1cc(-c2cc(Cl)ccc2OCCn2c(C)nc3c(c2=O)CC(N(C)CC2(C)COC2)CC3)c2scc(C(=O)NS(C)(=O)=O)c2n1 (single isomer, unassigned) [Compound 304] | < 1 | –
35 | 5 to 20 | < 0.1 | – | Cc1cc(-c2cc(Cl)ccc2OCCn2c(C)nc3c(c2=O)CC(N2CC(N4CCOCC4)C2)CC3)c2scc(C(=O)O)c2n1 (stereo not drawn) [Compound 17] | 1 to 5 | –
36 | < 5 | < 0.1 | – | Cc1cc(-c2cc(Cl)ccc2OCCn2c(C)nc3c(c2=O)CC(N2CC(F)(F)C4(CC4)C2)CC3)c2scc(C(=O)O)c2n1 (stereo not drawn) [Compound 279] | < 1 | –
37 | < 5 | < 0.1 | – | Cc1cc(-c2cc(Cl)ccc2OCCn2c(C)nc3c(c2=O)CC(N(C)Cc2ccncc2)CC3)c2scc(C(=O)NS(C)(=O)=O)c2n1 (stereo not drawn) [Compound 68] | < 1 | –
